1 compound from publication PMC12748958 (Nature Communications, 2025) can be followed below.

Each structure is given as a SMILES string.

In this assay the target is T1, PsiR-M2 (Agrobacterium fabrum, UniProt A9CH24, R109G/V134A).
T1 sequence (A9CH24 1-359 R109G/V134A): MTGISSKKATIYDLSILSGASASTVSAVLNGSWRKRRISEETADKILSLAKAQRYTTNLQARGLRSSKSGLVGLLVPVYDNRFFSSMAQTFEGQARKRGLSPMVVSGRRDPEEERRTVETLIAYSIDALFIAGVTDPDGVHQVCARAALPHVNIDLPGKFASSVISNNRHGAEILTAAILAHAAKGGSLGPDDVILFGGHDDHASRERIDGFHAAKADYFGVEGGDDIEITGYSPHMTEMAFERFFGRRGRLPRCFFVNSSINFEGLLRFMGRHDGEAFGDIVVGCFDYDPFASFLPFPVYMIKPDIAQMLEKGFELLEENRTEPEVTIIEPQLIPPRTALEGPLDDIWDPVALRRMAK
The assay is described as follows: microscale thermophoresis. It is filed as binding. For orientation: Microscale thermophoresis detects binding through changes in fluorescence in a small temperature gradient.

Regarding `O=C(CO)[C@H](O)[C@H](O)[C@H](O)CO` [D-allulose], the “microscale thermophoresis (MST) on purified protein” value is “After purifying PsiR-WT, M2, and M4 from E. coli BL21(DE3) via His-tag affinity chromatography”.
